This is an account of results in PMC4575386, “Intact cell mass spectrometry as a rapid and specific tool for the differentiation of toxic effects in cell-based ecotoxicological test systems” (Analytical and Bioanalytical Chemistry, 2015).

One data set deals with RTL-W1. Details: method as in PMID 24416442. The conditions noted are these: RTL-W1, in preparation for micronucleus assays; cited from earlier work.
A short description of a further data set: in vitro. The conditions noted are these: rainbow trout (Oncorhynchus mykiss). An excerpt:
(§1) Subsequently, medium was replaced with exposure medium.

In data set [1] the test system is RTL-W1 cells. In words: Intact cell MALDI-TOF mass spectrometry (IC-MS) profiles after 24 h toxin exposure. The class given is cell-based, rainbow trout (Oncorhynchus mykiss). The note with it: for number of IC-MS peaks that changed significantly through the toxin exposure: 24 h exposure. How it is done:
For IC-MS studies, cells were seeded in T25 cell culture flasks with a total amount of 1.7 × 10^6 cells. […] Toxin exposure was performed according to the viability studies.
After 24 h of toxin exposure, cells were harvested and washed with PBS at 2000×g, 4 °C for 5 min (Eppendorf 5424, Hamburg, Germany) based on the method detailed by Dong et al.. The total number of cells was calculated using an automated cell counter (Cedex XS Analyzer, Roche Innovatis, Bielefeld, Germany). The cell pellets were stored at −20 °C until IC-MS analysis.
According to the calculated cell number, stock solutions with 5 × 10^4 cells per μL as well as further dilutions of 2 × 10^4 and 1 × 10^4 cells per μL were prepared with PBS und stored on ice prior to IC-MS.
Samples and matrix solutions were deposited on the MALDI-TOF MS target layer by layer and successively air dried. First, a thin layer of saturated SA in ethanol was applied to an Opti-TOF 384 well insert (Kratos Analytical, Manchester, UK), followed by 0.5 μL of the sample solution and, finally, covered with 0.5 μL of SA matrix (38 mg/ml in water/ACN/TFA 40/60/0.2 (v/v/v)) which was presented by Munteanu et al.. All sample dilutions were spotted in duplicate.
MALDI-TOF mass spectra were obtained using an Axima Confidence mass spectrometer (Shimadzu Biotech, Manchester, UK) equipped with a 337-nm nitrogen laser. The filter for regulation of the laser firing power was set to 65. To generate representative profiles, a total of 600 laser shots were accumulated and averaged for each sample. Protein mass fingerprints were obtained in the linear, positive mode at a maximal laser repetition rate of 50 Hz within a mass range of 2000 to 20,000 Da.
MALDI-TOF MS data processing was performed using the LaunchpadTM v. 2.9 software (Shimadzu Biotech). A set of 10 peaks that occurred in the majority of spectra and were evenly distributed across the whole mass range were used for internal calibration.
For peak acquisition, an average smoothing method was performed with a smoothing filter width of 50 channels and a baseline filter width of 100 channels. […] For each spotted sample, a list of spectrum peaks was generated and analyzed statistically. The masses of equally treated samples were matched and means and standard deviations of ion abundances calculated. […] For principal component analysis (PCA), relative ion abundances were calculated and data normalized according to the control treatments. […]
The 15 distinctive peaks between m/z 4562 and m/z 15,292 were analyzed for each toxin treatment: The arithmetic mean of the ion abundances was calculated from the six replicates and the direction of deviation from the control treatment was determined and tested for significance (paired two-sample t test) (Table 2).

Data set [2] deals with RTL-W1 cells. Briefly: Viability studies (CellTiter-Blue® and CellTiter-Glo®, not told apart). The conditions noted are these: 24 h.
Description: as §1
Background: The colour change of resazurin is a common sign of viable cells or microbes.

Data set [3] can be described thus: Solubility in the culture medium (observation). The class given is physicochemical. The conditions noted are these: high concentrations resulted in precipitation.
For data set [4], the system named is RTL-W1 cells. The conditions noted are these: 24 h exposure, L15/ex medium.
Description: (§2) In this study, RTL-W1, a liver cell line from rainbow trout (Oncorhynchus mykiss) was used. […] The cells were routinely grown according to the method detailed by Hinger et al. [23] at 20 °C in Leibovitz L15 medium (Biochrom, Berlin, Germany) supplemented with 10 % fetal calf serum (Biochrom), 5 mM L-alanyl-L-glutamin (Biochrom) and 1 % antibiotics (Gibco by Life Technologies). Cells were grown to approximately 90 % confluency before passaging for experimental use.
(§3) Viability studies were performed in 96-well assay plates. Cells were seeded at a density of 20,000 viable cells/well and cultivated for approximately 24 h. Subsequently, medium was replaced with exposure medium. […]
(§4) After 24 h, the cultures were assayed for viability according to the manufacturer’s instructions (Promega). After a final incubation time of 4 h for CellTiter-Blue® Viability Assay, fluorescence was recorded at 540/595 nm on Tecan infinite 200 Pro microtiter plate reader (Tecan, Männedorf, Switzerland). The integration time for luminescence detection (CellTiter-Glo® Luminescent Cell Viability Assays) on Tecan GENios Plus microtiter plate reader (Tecan) was 500 ms per well.
(§5) Statistical analysis and EC50 calculations were performed using GraphPad Prism (Graphpad Software, San Diego, USA). […] EC50 values were calculated with a sigmoid dose–response fit and automatic outlier detection.
For data set [5], the system named is RTL-W1 cells. Details: method as in earlier work. The note with it: cited from earlier work.
Data set [6] relates to RTL-W1 cells. Details: method as in earlier work. The note with it: cited from earlier work. This is another data set of the same source.
In data set [7] the test system is RTL-W1 cells. The note with it: 24 h exposure, L15/ex medium. This is another data set of the same source.
Description: as §2, §3, §4, §5

One may read the viability as a read-out of living cells in per cent, often relative to untreated cells. The low end stands for more harm to the cells, the high end for less harm to the cells.

The structures appear in SMILES notation. Values joined by “and” are separate entries in the source; they are usually repeats but may differ in a detail not shown here. Identical values can stand only once.

In the case of `c1ccc2nc3ccccc3cc2c1` [Acridine, acridine], the “EC20, neutral red retention assay” value in the data set on RTL-W1 is 40.9 mg/L and 228 μM. In “in vitro”, the viability at 24 h, 150 µM was roughly 50%. Moreover, the “number of IC-MS peaks that changed significantly through the toxin exposure” value in the data set with RTL-W1 cells [1] is on record as “seven”.
For the compound `O=c1cc(-c2ccccc2)oc2ccc3ccccc3c12` [BNF, β-naphthoflavone], the “concentrations with significant decrease in viability” value in the data set on RTL-W1 cells [2] (vs control) is 10 µM and 20 µM. The compound further showed a viability at 24 h, 50 µM in “in vitro” of roughly 50%. The “number of IC-MS peaks that changed significantly through the toxin exposure” value with RTL-W1 cells [1] is “nine”. The “solubility in the culture medium” value in data set [3] was “low solubility”.
In the case of `O=S(=O)([O-])[O-].[Cu+2]` [Copper sulfate, copper sulfate], the “EC50 cytotoxicity, CellTiter-Glo®, 24 h” value with RTL-W1 cells [4] came to 10.08 µg/mL. The viability impairment result in the data set with RTL-W1 cells [2] (9 mg/L) is “roughly 50%”. In addition, in the data set with RTL-W1 cells [5], the “EC50 (redox activity), literature value” was 3.69 µg/mL. For the same compound, in the data set on RTL-W1 cells [6], the “EC50 (membrane integrity), literature value” was 6.56 µg/mL. Besides, the IC-MS profile behavior result in the data set with RTL-W1 cells [1] (2 mg/L, lowest concentration) is recorded as “apoptotic behavior”. In the data set on RTL-W1 cells [1], the “number of IC-MS peaks that changed significantly through the toxin exposure” value is “eight”. The “EC50 cytotoxicity, CellTiter-Blue®, 24 h” value in the data set with RTL-W1 cells [7] came to 8.23 µg/mL.
